# Data: publication PMC5218480 (PLoS ONE, 2017)
# Tested on: MV-4-11 cells
# Test: Gene expression microarray analysis (Affymetrix PrimeView) and GSEA
# Type: cell-based, human
# Design: RFU PODN (11730768_x_at) / Fold change /veh PODN (11730768_x_at) / RFU LINC00158 (11744669_a_at) / Fold change /veh LINC00158 (11744669_a_at) / RFU DUSP10 (11751237_a_at) / Fold change /veh DUSP10 (11751237_a_at) / RFU ID3 (11757404_x_at) / Fold change /veh ID3 (11757404_x_at) / RFU PLEKHG5 (11737974_s_at) / Fold change /veh PLEKHG5 (11737974_s_at) / RFU LRRC4B (11730491_at) / Fold change /veh LRRC4B (11730491_at) / RFU GIMAP4 (11747438_a_at) / Fold change /veh GIMAP4 (11747438_a_at) / RFU KRT8 (11758183_x_at) / Fold change /veh KRT8 (11758183_x_at) / RFU CNN1 (11734310_a_at) / Fold change /veh CNN1 (11734310_a_at) / RFU VPS37D (11726825_at) / Fold change /veh VPS37D (11726825_at) / RFU C10orf10 (11716522_x_at) / Fold change /veh C10orf10 (11716522_x_at) / RFU KIR2DL2 /// KIR2DL4 /// KIR2DL5A /// KIR2DL5B /// KIR2DS1 /// KIR2DS2 /// KIR2DS3 /// KIR2DS4 /// KIR3DL3 /// KIR3DL3 /// KIR3DS1 (11738374_at) / Fold change /veh KIR2DL2 /// KIR2DL4 /// KIR2DL5A /// KIR2DL5B /// KIR2DS1 /// KIR2DS2 /// KIR2DS3 /// KIR2DS4 /// KIR3DL3 /// KIR3DL3 /// KIR3DS1 (11738374_at) / RFU C1QL1 (11718748_at) / Fold change /veh C1QL1 (11718748_at) / RFU TMPRSS4 (11747572_a_at) / Fold change /veh TMPRSS4 (11747572_a_at) / RFU HAMP (11756126_x_at) / Fold change /veh HAMP (11756126_x_at) / RFU RNFT2 (11725882_a_at) / Fold change /veh RNFT2 (11725882_a_at) / RFU NR4A2 (11747474_a_at) / Fold change /veh NR4A2 (11747474_a_at) / RFU ABCC12 (11746883_a_at) / Fold change /veh ABCC12 (11746883_a_at) / RFU TMEM136 (11760407_x_at) / Fold change /veh TMEM136 (11760407_x_at) / RFU CLDN22 /// WWC2 (11732394_at) / Fold change /veh CLDN22 /// WWC2 (11732394_at) / RFU HLA-DPB1 (11760878_x_at) / Fold change /veh HLA-DPB1 (11760878_x_at) / RFU SPINT1 (11716480_a_at) / Fold change /veh SPINT1 (11716480_a_at) / RFU GAP43 (11754022_s_at) / Fold change /veh GAP43 (11754022_s_at) / RFU A4GNT (11735810_at) / Fold change /veh A4GNT (11735810_at) / RFU PRB3 (11715151_x_at) / Fold change /veh PRB3 (11715151_x_at) / RFU TUBB4B (11761932_at) / Fold change /veh TUBB4B (11761932_at) / RFU CAPN14 (11732068_a_at) / Fold change /veh CAPN14 (11732068_a_at) / RFU TMCC2 (11721928_a_at) / Fold change /veh TMCC2 (11721928_a_at) / RFU IRGQ (11745062_a_at) / Fold change /veh IRGQ (11745062_a_at) / RFU FAM174B (11720279_a_at) / Fold change /veh FAM174B (11720279_a_at) / RFU TMPRSS4 (11748680_a_at) / Fold change /veh TMPRSS4 (11748680_a_at) / RFU FAM212B (11763350_a_at) / Fold change /veh FAM212B (11763350_a_at) / RFU PLEKHG5 (11743358_a_at) / Fold change /veh PLEKHG5 (11743358_a_at) / RFU ZSCAN30 (11745921_a_at) / Fold change /veh ZSCAN30 (11745921_a_at) / RFU CMKLR1 (11741424_a_at) / Fold change /veh CMKLR1 (11741424_a_at) / RFU LOC101060620 /// MAPK8IP1 (11723275_at) / Fold change /veh LOC101060620 /// MAPK8IP1 (11723275_at) / RFU SPTSSB (11747773_x_at) / Fold change /veh SPTSSB (11747773_x_at) / RFU PRSS12 (11739890_at) / Fold change /veh PRSS12 (11739890_at) / RFU BIN1 (11741810_x_at) / Fold change /veh BIN1 (11741810_x_at) / RFU WNT11 (11732464_a_at) / Fold change /veh WNT11 (11732464_a_at) / RFU C10orf10 (11716521_a_at) / Fold change /veh C10orf10 (11716521_a_at) / RFU C5orf56 (11738089_at) / Fold change /veh C5orf56 (11738089_at) / RFU CYB561 (11721691_x_at) / Fold change /veh CYB561 (11721691_x_at) / RFU ANKRD19P (11752326_a_at) / Fold change /veh ANKRD19P (11752326_a_at) / RFU OR2T12 /// OR2T33 /// OR2T8 (11738714_s_at) / Fold change /veh OR2T12 /// OR2T33 /// OR2T8 (11738714_s_at) / RFU VCAN (11748164_a_at) / Fold change /veh VCAN (11748164_a_at) / RFU JSRP1 (11732532_at) / Fold change /veh JSRP1 (11732532_at) / RFU KRTAP10-11 (11738290_x_at) / Fold change /veh KRTAP10-11 (11738290_x_at) / RFU MYO3A (11730013_a_at) / Fold change /veh MYO3A (11730013_a_at) / RFU EBF3 (11725865_a_at) / Fold change /veh EBF3 (11725865_a_at) / RFU CAMK2N1 (11719241_x_at) / Fold change /veh CAMK2N1 (11719241_x_at) / RFU C5orf56 (11738088_a_at) / Fold change /veh C5orf56 (11738088_a_at) / RFU OLFML3 (11715873_a_at) / Fold change /veh OLFML3 (11715873_a_at) / RFU LOC100653217 /// NTM (11731650_a_at) / Fold change /veh LOC100653217 /// NTM (11731650_a_at) / RFU MAPK11 (11762145_a_at) / Fold change /veh MAPK11 (11762145_a_at) / RFU FIZ1 (11724087_x_at) / Fold change /veh FIZ1 (11724087_x_at) / RFU OASL (11726364_x_at) / Fold change /veh OASL (11726364_x_at) / RFU SOX15 (11748057_x_at) / Fold change /veh SOX15 (11748057_x_at) / RFU CD79A (11719716_a_at) / Fold change /veh CD79A (11719716_a_at) / RFU HIST1H1D (11736915_at) / Fold change /veh HIST1H1D (11736915_at) / RFU CASKIN2 (11723855_a_at) / Fold change /veh CASKIN2 (11723855_a_at) / RFU LOC730098 (11760151_x_at) / Fold change /veh LOC730098 (11760151_x_at) / RFU OR4N2 (11742367_at) / Fold change /veh OR4N2 (11742367_at) / RFU PRRT2 (11749266_a_at) / Fold change /veh PRRT2 (11749266_a_at) / RFU SNX32 (11753110_a_at) / Fold change /veh SNX32 (11753110_a_at) / RFU CDHR5 (11726645_a_at) / Fold change /veh CDHR5 (11726645_a_at) / RFU RCAN1 (11760418_a_at) / Fold change /veh RCAN1 (11760418_a_at) / RFU FAM167A (11723789_a_at) / Fold change /veh FAM167A (11723789_a_at) / RFU FAM26E (11764081_at) / Fold change /veh FAM26E (11764081_at) / RFU ISYNA1 (11749810_s_at) / Fold change /veh ISYNA1 (11749810_s_at) / RFU ACY1 (11761880_at) / Fold change /veh ACY1 (11761880_at) / RFU 11764098_at / Fold change /veh 11764098_at / RFU SAMD14 (11745864_x_at) / Fold change /veh SAMD14 (11745864_x_at) / RFU NPB (11741838_a_at) / Fold change /veh NPB (11741838_a_at) / RFU TMPRSS6 (11731388_a_at) / Fold change /veh TMPRSS6 (11731388_a_at) / RFU KRTAP10-2 (11738614_at) / Fold change /veh KRTAP10-2 (11738614_at) / RFU ARHGAP8 /// PRR5-ARHGAP8 (11727945_x_at) / Fold change /veh ARHGAP8 /// PRR5-ARHGAP8 (11727945_x_at) / RFU KRTAP5-7 /// NADSYN1 (11734609_at) / Fold change /veh KRTAP5-7 /// NADSYN1 (11734609_at) / RFU RASL12 (11751679_a_at) / Fold change /veh RASL12 (11751679_a_at) / RFU CDKN2B (11736163_a_at) / Fold change /veh CDKN2B (11736163_a_at) / RFU PRF1 (11729649_at) / Fold change /veh PRF1 (11729649_at) / RFU, ZNF638 /// ZNF638-IT1 / Fold change vs veh, ZNF638 /// ZNF638-IT1 / RFU, PANK3 / Fold change vs veh, PANK3 / RFU, SH3YL1 / Fold change vs veh, SH3YL1 / RFU, ZEB2 / Fold change vs veh, ZEB2 / RFU, NRIP1 / Fold change vs veh, NRIP1 / RFU, PTTG1IP / Fold change vs veh, PTTG1IP / RFU, CAPN2 / Fold change vs veh, CAPN2 / RFU, MED14 / Fold change vs veh, MED14 / RFU, SNORA58 / Fold change vs veh, SNORA58 / RFU, C1orf63 / Fold change vs veh, C1orf63 / RFU, LRRFIP1 / Fold change vs veh, LRRFIP1 / RFU, NDUFAF7 / Fold change vs veh, NDUFAF7 / RFU, SLC12A2 / Fold change vs veh, SLC12A2 / RFU, IBTK / Fold change vs veh, IBTK / RFU, ESF1 / Fold change vs veh, ESF1 / Fold change vs veh, TMEM50B / RFU, TAOK1 / Fold change vs veh, TAOK1 / RFU, ACBD3 / Fold change vs veh, ACBD3 / RFU, TMA16 / Fold change vs veh, TMA16 / RFU, RWDD3 / Fold change vs veh, RWDD3 / RFU, BCAT1 / Fold change vs veh, BCAT1 / RFU, EDEM3 / Fold change vs veh, EDEM3 / RFU, TMEM33 / Fold change vs veh, TMEM33 / RFU, WDR75 / Fold change vs veh, WDR75 / RFU, AHCTF1 / Fold change vs veh, AHCTF1 / RFU, TFRC / Fold change vs veh, TFRC / RFU, ZDHHC17 / Fold change vs veh, ZDHHC17 / RFU, NOM1 / Fold change vs veh, NOM1 / RFU, ARL8B / Fold change vs veh, ARL8B / RFU, ZBTB11 / Fold change vs veh, ZBTB11 / RFU, TAMM41 / Fold change vs veh, TAMM41 / RFU, KIAA1704 /// LOC100996395 / Fold change vs veh, KIAA1704 /// LOC100996395 / RFU, ING1 / Fold change vs veh, ING1 / RFU, TRMT61B / Fold change vs veh, TRMT61B / RFU, FUBP3 / Fold change vs veh, FUBP3 / RFU, TP53 / Fold change vs veh, TP53 / RFU, TNKS2 / Fold change vs veh, TNKS2 / RFU, ZFP14 / Fold change vs veh, ZFP14 / RFU, ACTR2 / Fold change vs veh, ACTR2 / RFU, PPP3R1 / Fold change vs veh, PPP3R1 / RFU, PIK3R1 / Fold change vs veh, PIK3R1 / RFU, HNRNPA1 / Fold change vs veh, HNRNPA1 / RFU, RNF170 / Fold change vs veh, RNF170 / RFU, ZNF28 / Fold change vs veh, ZNF28 / RFU, RNGTT / Fold change vs veh, RNGTT / RFU, OGT / Fold change vs veh, OGT / RFU, BRD1 / Fold change vs veh, BRD1 / RFU, MARS / Fold change vs veh, MARS / RFU, ZNF655 / Fold change vs veh, ZNF655 / RFU, FAHD1 / Fold change vs veh, FAHD1 / RFU, BDP1 / Fold change vs veh, BDP1 / RFU, LRRCC1 / Fold change vs veh, LRRCC1 / RFU, ARID1A / Fold change vs veh, ARID1A / RFU, ZNF146 / Fold change vs veh, ZNF146 / RFU, ZNF330 / Fold change vs veh, ZNF330 / RFU, GPN3 / Fold change vs veh, GPN3 / RFU, C9orf123 / Fold change vs veh, C9orf123 / RFU, N4BP2L2 / Fold change vs veh, N4BP2L2 / RFU, ARFIP1 / Fold change vs veh, ARFIP1 / RFU, FAM179B / Fold change vs veh, FAM179B / RFU, BCL10 / Fold change vs veh, BCL10 / RFU, UHRF1BP1L / Fold change vs veh, UHRF1BP1L / RFU, BET1 / Fold change vs veh, BET1 / RFU, CNOT2 / Fold change vs veh, CNOT2 / RFU, ZNF268 / Fold change vs veh, ZNF268 / Fold change vs veh, ZNF507 / RFU, DGCR2 / Fold change vs veh, DGCR2 / RFU, WDSUB1 / Fold change vs veh, WDSUB1 / Fold change vs veh, HSP90B1 /// MIR3652 / RFU, ADSS / Fold change vs veh, ADSS / RFU, GK / Fold change vs veh, GK / RFU, ZNF148 / Fold change vs veh, ZNF148 / RFU, TAF9 / Fold change vs veh, TAF9 / RFU, SLC1A5 / Fold change vs veh, SLC1A5 / RFU, SLMO2 / Fold change vs veh, SLMO2 / RFU, ABCC4 / Fold change vs veh, ABCC4 / RFU, LOC101060439 /// RAP1B / Fold change vs veh, LOC101060439 /// RAP1B / RFU, RFX7 / Fold change vs veh, RFX7 / RFU, GTPBP10 / Fold change vs veh, GTPBP10 / RFU, CNEP1R1 / Fold change vs veh, CNEP1R1 / RFU, BIVM-ERCC5 /// ERCC5 / Fold change vs veh, BIVM-ERCC5 /// ERCC5 / RFU, ILF3 / Fold change vs veh, ILF3 / RFU 11762660_at / Fold change /veh 11762660_at / RFU VCAN (11757783_s_at) / Fold change /veh VCAN (11757783_s_at) / RFU DDX43 (11728927_at) / Fold change /veh DDX43 (11728927_at) / RFU KRT8 (11758188_x_at) / Fold change /veh KRT8 (11758188_x_at) / RFU NKD1 (11759106_at) / Fold change /veh NKD1 (11759106_at) / RFU SRD5A1 (11742802_a_at) / Fold change /veh SRD5A1 (11742802_a_at) / RFU TPSAB1 /// TPSB2 (11721975_s_at) / Fold change /veh TPSAB1 /// TPSB2 (11721975_s_at) / RFU GSTM3 (11746129_a_at) / Fold change /veh GSTM3 (11746129_a_at) / RFU IL23R (11737362_x_at) / Fold change /veh IL23R (11737362_x_at) / RFU TMEM51 (11727254_a_at) / Fold change /veh TMEM51 (11727254_a_at) / RFU PIWIL2 (11732686_x_at) / Fold change /veh PIWIL2 (11732686_x_at) / RFU ORM1 (11744905_x_at) / Fold change /veh ORM1 (11744905_x_at) / RFU CCDC152 (11743942_at) / Fold change /veh CCDC152 (11743942_at) / RFU ECM1 (11717891_a_at) / Fold change /veh ECM1 (11717891_a_at) / RFU IL23R (11748794_a_at) / Fold change /veh IL23R (11748794_a_at) / RFU TNFAIP8L3 (11732012_x_at) / Fold change /veh TNFAIP8L3 (11732012_x_at) / RFU MBOAT4 (11741988_at) / Fold change /veh MBOAT4 (11741988_at) / RFU 11764193_at / Fold change /veh 11764193_at / RFU TMEM53 (11763286_at) / Fold change /veh TMEM53 (11763286_at) / RFU MAGEB2 (11727129_at) / Fold change /veh MAGEB2 (11727129_at) / RFU TMEM200A (11744735_a_at) / Fold change /veh TMEM200A (11744735_a_at) / RFU CCDC152 (11751479_a_at) / Fold change /veh CCDC152 (11751479_a_at) / RFU FAM211A (11726209_a_at) / Fold change /veh FAM211A (11726209_a_at) / RFU RGS16 (11746705_a_at) / Fold change /veh RGS16 (11746705_a_at) / RFU VCAN (11755009_s_at) / Fold change /veh VCAN (11755009_s_at) / RFU RHOB (11743442_s_at) / Fold change /veh RHOB (11743442_s_at) / RFU RGS16 (11720943_a_at) / Fold change /veh RGS16 (11720943_a_at) / RFU RGS16 (11720944_at) / Fold change /veh RGS16 (11720944_at) / RFU, VPS4B / Fold change vs veh, VPS4B / RFU, CREB1 / Fold change vs veh, CREB1 / RFU, DNAJC13 / Fold change vs veh, DNAJC13 / RFU, GNAQ / Fold change vs veh, GNAQ / RFU, CDK5R1 / Fold change vs veh, CDK5R1 / RFU, ZRANB3 / Fold change vs veh, ZRANB3 / RFU, CUL4A / Fold change vs veh, CUL4A / RFU, CCNY / Fold change vs veh, CCNY / RFU, UFL1 / Fold change vs veh, UFL1 / RFU, COG3 / Fold change vs veh, COG3 / RFU, DIAPH2 / Fold change vs veh, DIAPH2 / RFU, SKA2 / Fold change vs veh, SKA2 / RFU, AFF3 / Fold change vs veh, AFF3 / RFU, LMF1 / Fold change vs veh, LMF1 / RFU, IPO11 / Fold change vs veh, IPO11 / RFU, DFFB / Fold change vs veh, DFFB / RFU, FOXP1 / Fold change vs veh, FOXP1 / RFU, CARD8 / Fold change vs veh, CARD8 / RFU, STRN3 / Fold change vs veh, STRN3 / RFU, ADK / Fold change vs veh, ADK / RFU, RASSF2 / Fold change vs veh, RASSF2 / RFU, WIPF1 / Fold change vs veh, WIPF1 / RFU, LARP1B / Fold change vs veh, LARP1B / RFU, RASA1 / Fold change vs veh, RASA1 / RFU, RB1 / Fold change vs veh, RB1 / RFU, PPFIA1 / Fold change vs veh, PPFIA1 / RFU, MAT2A / Fold change vs veh, MAT2A / RFU, CCT5 / Fold change vs veh, CCT5 / RFU, WDR92 / Fold change vs veh, WDR92 / RFU, CUX1 / Fold change vs veh, CUX1 / RFU, TTC7A / Fold change vs veh, TTC7A / RFU, TMEM135 / Fold change vs veh, TMEM135 / RFU, DEPTOR / Fold change vs veh, DEPTOR / RFU, CPM / Fold change vs veh, CPM / RFU, DNAJB6 / Fold change vs veh, DNAJB6 / RFU, CACNA2D3 / Fold change vs veh, CACNA2D3 / RFU, DTX4 / Fold change vs veh, DTX4 / RFU, TFCP2 / Fold change vs veh, TFCP2 / RFU, GMCL1 /// GMCL1P1 / Fold change vs veh, GMCL1 /// GMCL1P1 / RFU, AEBP2 / Fold change vs veh, AEBP2 / RFU, SNHG1 /// SNORD22 /// SNORD25 /// SNORD26 /// SNORD27 /// SNORD28 /// SNORD29 /// SNORD31 / Fold change vs veh, SNHG1 /// SNORD22 /// SNORD25 /// SNORD26 /// SNORD27 /// SNORD28 /// SNORD29 /// SNORD31 / Fold change (Aza/veh), C12orf56 (ProbeSet 11735607_a_at) / Fold change (ACY-1035/veh), C12orf56 (ProbeSet 11735607_a_at) / Fold change (Aza/veh), FGFR1OP (ProbeSet 11751329_s_at) / Fold change (ACY-1035/veh), FGFR1OP (ProbeSet 11751329_s_at) / Fold change (Aza/veh), VPS36 (ProbeSet 11739960_a_at) / Fold change (ACY-1035/veh), VPS36 (ProbeSet 11739960_a_at) / RFU SYPL1 (11715823_x_at) / Fold change /veh SYPL1 (11715823_x_at) / RFU IGFBP7 (11715501_s_at) / Fold change /veh IGFBP7 (11715501_s_at) / RFU REEP3 (11722064_at) / Fold change /veh REEP3 (11722064_at) / RFU IGLL1 (11728026_x_at) / Fold change /veh IGLL1 (11728026_x_at): dose or concentration left out as unconfirmed
# Details: ProbeSet 11724877_a_at; LIST D
structure (smiles),measurement,value
Nc1ccc(-c2cccs2)cc1NC(=O)c1ccc2c(c1)cc(C1CC1)n2CCN1CCOCC1 [ACY-1035],"Fold change vs veh, AEBP2",1.03
